Our source for the Activity, IC50 and Ki values is ChEMBL document CHEMBL4382287, “Design, Synthesis, and Biological Evaluation of 6-Benzoxazole Benzimidazole Derivatives with Antihypertension Activities” (ACS Med Chem Lett, 2019).

As usually defined, the IC50 is the concentration at which inhibition is half-maximal. A low value points to higher potency. As usually defined, the Ki is a measure of affinity in units of concentration, obtained from inhibition or displacement. A low value points to higher affinity.

Active and inactive are the calls of the source. No cut-off for these calls is given here.

In the first data set the test system is Rattus norvegicus. In words: Antihypertensive activity in rat spontaneous hypertensive model assessed as decrease in maximal mean blood pressure at 5 to 10 mg/kg, po qd measured up to 24 hrs. The data set is classed as functional, organism-based.
Conditions: not given
For `CCCc1nc2c(C)cc(-c3nc4c(C)cccc4o3)cc2n1Cc1ccc2c(ccn2-c2ccccc2C(=O)O)c1`, the result was Active.
On the same count and under the same terms, the value for `CCCCc1nc2c(C)cc(-c3nc4c(C)cccc4o3)cc2n1Cc1cccc2c1ccn2-c1ccccc1C(=O)O` was “Active”; that for `CCCCc1nc2c(C)cc(-c3nc4cccc(C)c4o3)cc2n1Cc1cccc2c1ccn2-c1ccccc1C(=O)O` was “Active”; that for `CCc1nc2c(C)cc(-c3nc4c(C)cccc4o3)cc2n1Cc1cccc2c1ccn2-c1ccccc1C(=O)O` was “Active”.
As for `CCCc1nc2c(C)cc(-c3nc4cccc(C)c4o3)cc2n1Cc1cccc2c1ccn2-c1ccccc1C(=O)O`, the result was Active.
The same measure, in the same setting: the value for `CCCc1nc2c(C)cc(-c3nc4c(C)cccc4o3)cc2n1Cc1cccc2c1ccn2-c1ccccc1C(=O)O` was “Active”.
Same read-out and setting: the value for `CCc1nc2c(C)cc(-c3nc4cccc(C)c4o3)cc2n1Cc1cccc2c1ccn2-c1ccccc1C(=O)O` was “Active”.
Still for that read-out and setting: the value for `CCCc1nc2c(C)cc(-c3nc4cccc(C)c4o3)cc2n1Cc1ccc2c(ccn2-c2ccccc2C(=O)O)c1` was “Active”; that for `CCCCc1nc2c(C)cc(-c3nc4cccc(C)c4o3)cc2n1Cc1ccc2c(ccn2-c2ccccc2C(=O)O)c1` was “Active”; that for `CCc1nc2c(C)cc(-c3nc4cccc(C)c4o3)cc2n1Cc1ccc2c(ccn2-c2ccccc2C(=O)O)c1` was “Active”.
Regarding `CCc1nc2c(C)cc(-c3nc4c(C)cccc4o3)cc2n1Cc1ccc2c(ccn2-c2ccccc2C(=O)O)c1`, the outcome was Active.
Take `CCCCc1nc2c(C)cc(-c3nc4c(C)cccc4o3)cc2n1Cc1ccc2c(ccn2-c2ccccc2C(=O)O)c1`: the result was Active.

System in the next data set: not listed separately
The experiment in a line: Displacement of [125I]-angiotensin-2 from AT1 receptor in Sprague-Dawley rat vascular smooth muscle cells after 150 mins by gamma counting method.
Conditions: not given
(Displacement assays read how much labelled ligand stays bound in the presence of the test substance.)
In the case of `CCCc1nc2c(C)cc(-c3nc4c(C)cccc4o3)cc2n1Cc1ccc2c(ccn2-c2ccccc2C(=O)O)c1`, the IC50 is 4.4 nM and the Ki was 3.2 nM.
For `CCCCc1nc2c(C)cc(-c3nc4c(C)cccc4o3)cc2n1Cc1cccc2c1ccn2-c1ccccc1C(=O)O`, in that order: 9.9 nM and 7.2 nM.
For `CCCCc1nc2c(C)cc(-c3nc4cccc(C)c4o3)cc2n1Cc1cccc2c1ccn2-c1ccccc1C(=O)O`, in that order: 10.5 nM and 7.6 nM.
For `CCc1nc2c(C)cc(-c3nc4c(C)cccc4o3)cc2n1Cc1cccc2c1ccn2-c1ccccc1C(=O)O`, in that order: 10.3 nM and 7.5 nM.
In turn, `CCCc1nc2c(C)cc(-c3nc4cccc(C)c4o3)cc2n1Cc1cccc2c1ccn2-c1ccccc1C(=O)O` showed an IC50 of 5.3 nM and a Ki of 3.8 nM.
For `CCCc1nc2c(C)cc(-c3nc4c(C)cccc4o3)cc2n1Cc1cccc2c1ccn2-c1ccccc1C(=O)O`, in that order: 4 nM and 2.9 nM.
`CCc1nc2c(C)cc(-c3nc4cccc(C)c4o3)cc2n1Cc1cccc2c1ccn2-c1ccccc1C(=O)O` returned an IC50 of 12.1 nM and a Ki of 8.8 nM.
For `CCCc1nc2c(C)cc(-c3nc4cccc(C)c4o3)cc2n1Cc1ccc2c(ccn2-c2ccccc2C(=O)O)c1`, in that order: 5.6 nM and 4 nM.
For `CCCCc1nc2c(C)cc(-c3nc4cccc(C)c4o3)cc2n1Cc1ccc2c(ccn2-c2ccccc2C(=O)O)c1`, in that order: 9.7 nM and 7 nM.
For `CCc1nc2c(C)cc(-c3nc4cccc(C)c4o3)cc2n1Cc1ccc2c(ccn2-c2ccccc2C(=O)O)c1`, in that order: 13.6 nM and 9.8 nM.
As for `CCCCc1nc(Cl)c(CO)n1Cc1ccc(-c2ccccc2-c2nnn[nH]2)cc1` [LOSARTAN], the IC50 was found to be 14.6 nM and the Ki amounted to 10.5 nM.
`CCc1nc2c(C)cc(-c3nc4c(C)cccc4o3)cc2n1Cc1ccc2c(ccn2-c2ccccc2C(=O)O)c1` yielded an IC50 of 12 nM and a Ki of 8.7 nM.
For the compound `CCCCc1nc2c(C)cc(-c3nc4c(C)cccc4o3)cc2n1Cc1ccc2c(ccn2-c2ccccc2C(=O)O)c1`, the IC50 worked out at 10.7 nM and the Ki is 7.7 nM.

System in another data set: not listed separately
In words: Toxicity in rat spontaneous hypertensive model assessed as effect on heart rate at 5 to 10 mg/kg, po qd measured up to 24 hrs. The data set is classed as organism-based. Particulars: in vivo.
With `CCCc1nc2c(C)cc(-c3nc4c(C)cccc4o3)cc2n1Cc1ccc2c(ccn2-c2ccccc2C(=O)O)c1`, the Activity result is “Non-Toxic”.
Same read-out and setting: the result for `CCCc1nc2c(C)cc(-c3nc4c(C)cccc4o3)cc2n1Cc1cccc2c1ccn2-c1ccccc1C(=O)O` reads “Non-Toxic”.

For a further data set, the system named is Rattus norvegicus. In words: Antihypertensive activity in rat spontaneous hypertensive model assessed as decrease in maximal mean blood pressure at 10 mg/kg, po qd measured up to 24 hrs. The data set is classed as functional.
Conditions: not given
In the case of `CCCc1nc2c(C)cc(-c3nc4c(C)cccc4o3)cc2n1Cc1ccc2c(ccn2-c2ccccc2C(=O)O)c1`, the Activity stood at 41.91 mmHg.
For `CCCc1nc2c(C)cc(-c3nc4c(C)cccc4o3)cc2n1Cc1cccc2c1ccn2-c1ccccc1C(=O)O`, the Activity amounted to 54.57 mmHg.
On the same count and under the same terms, the result for `CCCCc1nc(Cl)c(CO)n1Cc1ccc(-c2ccccc2-c2nnn[nH]2)cc1` [LOSARTAN] reads 42.5 mmHg.
